The values below come from patent US6207671A, “Cycloalkano-pyridines” (Bayer Aktiengesellschaft, priority 1996, dated 2001).

The subject of test [1] is HDL cholesterol. Description: In vivo activity: oral action on lipoproteins and triglycerides in hamsters (HDL rise). Details: species or system Syrian golden hamsters. The conditions noted are these: dose 2 × 3 mg/kg, up to 24 hours. As for the experimental part: In experiments to determine the oral action on lipoproteins and triglycerides, test substance dissolved in DMSO and 0.5% Tylose suspended by means of a stomach tube are administered orally to Syrian golden hamsters from in-house breeding. To determine the CETP activity, blood (about 250 μl) is taken by retro-orbital puncture before the start of the experiment. The test substances are then administered orally by means of a stomach tube. The control animals receive identical volumes of solvents without test substance. The feed is then withdrawn from the animals and blood is taken at various times--up to 24 hours after substance administration--by puncture of the retro-orbital venous plexus. Clotting is ended by incubation at 4° C. overnight, then centrifugation at 6000×g is carried out for 10 minutes. In the serum thus obtained, the content of cholesterol and triglycerides is determined with the aid of modified commercially available enzyme tests (cholesterol enzymatic 14366 Merck, triglycerides 14364 Merck). Serum is suitably diluted using physiological saline solution.
100 μl of serum dilution are mixed with 100 μl of […] in 96-hole plates and incubated at room temperature for 10 minutes. The optical density is then determined at a wavelength of 492 nm using an automatic plate-reading apparatus. The triglyceride or cholesterol concentration contained in the samples is determined with the aid of a standard curve measured in parallel.
The determination of the content of HDL cholesterol is carried out according to the manufacturer's instructions after precipitation of the ApoB-containing lipoproteins by means of a reagent mixture (Sigma 352-4 HDL cholesterol reagent).

For test [2], the target named is T1, cholesterol ester transfer protein (CETP) (Homo sapiens, UniProt P11597).
T1 construct: CETP is obtained from human plasma in partially purified form; from tissue; host or cells: human plasma
T1 sequence (P11597 18-493): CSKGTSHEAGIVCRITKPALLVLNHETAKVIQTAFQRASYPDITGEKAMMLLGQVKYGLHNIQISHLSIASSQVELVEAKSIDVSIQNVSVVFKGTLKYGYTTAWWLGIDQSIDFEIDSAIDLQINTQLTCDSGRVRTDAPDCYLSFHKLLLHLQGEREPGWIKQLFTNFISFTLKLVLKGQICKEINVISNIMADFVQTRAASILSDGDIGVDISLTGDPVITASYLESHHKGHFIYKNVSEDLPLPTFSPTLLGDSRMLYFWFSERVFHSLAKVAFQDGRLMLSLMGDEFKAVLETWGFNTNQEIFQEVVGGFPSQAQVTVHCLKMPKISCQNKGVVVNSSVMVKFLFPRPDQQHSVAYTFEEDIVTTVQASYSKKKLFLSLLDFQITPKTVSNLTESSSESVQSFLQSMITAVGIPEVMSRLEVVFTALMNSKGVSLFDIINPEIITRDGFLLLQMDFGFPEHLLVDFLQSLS
Put plainly: CETP inhibition test: transfer of 3H-cholesterol ester from human HD lipoproteins to biotinylated LD lipoproteins (SPA). The test is classed as biochemical. The conditions noted are these: human plasma CETP, 18 h, 37° C. As for the experimental part: CETP is obtained from human plasma in partially purified form by differential centrifugation and column chromatography and used for the test. To this end, human plasma is adjusted to a density of 1.21 g per ml using NaBr and centrifuged at 4° C. for 18 h at 50,000 rpm. The bottom fraction (d>1.21 g/ml) is applied to a Sephadex®phenyl-sepharose 4B (Pharmacia) column, washed with 0.15 M NaCl/0.001 M trisHCl pH 7.4 and then eluted with distilled water. The CETP-active fractions are pooled, dialysed against 50 mM Na acetate pH 4.5 and applied to a CM-Sepharose® (Pharmacia) column. The column is then eluted using a linear gradient (0-1 M NaCl). The pooled CETP fractions are dialysed against 10 mM trisHCl pH 7.4 and then further purified by chromatography on a Mono Q® column (Pharmacia).
50 ml of fresh human EDTA plasma are adjusted to a density of 1.12 using NaBr and centrifuged at 50,000 rpm for 18 h at 4° C. in a Ty 65 rotor. The upper phase is used to obtain cold LDL. The lower phase is dialysed against 3×4 l of PDB buffer (10 mM tris/HCl pH 7.4, […] NaCl, 1 mM EDTA, 0.02% NaN3). 20 μl of ^3 H-cholesterol (Dupont NET-725; 1 μC/μl dissolved in ethanol) are then added per 10 ml of retentate volume and the mixture is incubated under N2 at 37° C. for 72 h.
The mixture is then adjusted to the density 1.21 using NaBr and centrifuged at 20° C. for 18 h at 50,000 rpm in the Ty 65 rotor. The upper phase is recovered and the lipoprotein fractions are purified by gradient centrifugation. To this end, the isolated, labelled lipoprotein fraction is adjusted to a density of 1.26 using NaBr. Each 4 ml of this solution are covered with a layer of 4 ml of a solution of density 1.21 and 4.5 ml of a solution of 1.063 (density solutions from PDB buffer and NaBr) in centrifuge tubes (SW 40 rotor) and then centrifuged in the SW 40 rotor for 24 h at 38,000 rpm and 20° C. The intermediate layer lying between the densities 1.063 and 1.21 and containing the labelled HDL is dialysed at 4° C. against 3×100 volumes of PDB buffer.
The retentate contains radiolabelled ^3 H-CE-HDL which, adjusted to about 5×10^6 cmp per ml, is used for the test.
To test the CETP activity, the transfer of ^3 H-cholesterol ester from human HD lipoproteins to biotinylated LD lipoproteins is measured.
The reaction is ended by addition of streptavidin-SPA®beads (Amersham) and the transferred radioactivity is determined directly in a liquid scintillation counter.
In the test mixture, 10 μl of HDL-^3 H-cholesterol ester (~50,000 cpm) are incubated at 37° C. for 18 h with 10 μl of biotin-LDL (Amersham) in 50 mM Hepes/0.15 M NaCl/0.1% bovine serum albumin/0.05% NaN3 pH 7.4 with 10 μl of CETP (1 mg/ml) and 3 μl of solution of the substance to be tested (dissolved in 10% DMSO/1% RSA). 200 μl of the SPA-streptavidin bead solution (TRKQ 7005) are then added, the mixture is incubated further for 1 h with shaking and then measured in the scintillation counter. As controls, corresponding incubations with 10 μl of buffer, 10 μl of CETP at 4° C. and 10 μl of CETP at 37° C. are used.
The activity transferred into the control mixtures with CETP at 37° C. is rated as 100% transfer. The substance concentration at which this transfer is reduced by half is indicated as the IC50 value.

Test [3] concerns CETP. Description: Ex vivo activity: CETP activity in serum of treated hamsters (modified CETP test). Details: species or system Syrian golden hamsters. The conditions noted are these: for % Inhibition at 30 mg/kg: ex vivo CETP activity in hamster serum; for ED50 values for ex vivo activity: hamster serum, up to 24 hours after administration. As for the experimental part:
Syrian golden hamsters from in-house breeding are anaesthetized after fasting for 24 hours (0.8 mg/kg of atropine, 0.8 mg/kg of Ketavet® s.c., 30'later 50 mg/kg of Nembutal i.p.). The jugular vein is then exposed and cannulated. The test substance is dissolved in a suitable solvent (as a rule Adalat placebo solution: 60 g of glycerol, 100 ml of H2 O, PEG-400 to 1000 ml) and administered to the animals via a PE catheter inserted in the jugular vein. The control animals receive the same volume of solvent without test substance. The vein is then tied off and the wound is closed. The administration of the test substances can also be carried out p.o., by orally administering the substances dissolved in DMSO and suspended in 0.5% Tylose by means of a stomach tube. The control animals receive identical volumes of solvent without test substance.
After various times--up to 24 hours after administration--blood (about 250 μl) is taken from the animals by puncture of the retro-orbital venous plexus. Clotting is ended by incubation at 4° C. overnight, then centrifugation is carried out at 6000×g for 10 minutes. In the serum thus obtained, CETP activity is determined by the modified CETP test. As for the CETP test described above, the transfer of ^3 H-cholesterol ester from HD lipoproteins to biotinylated LD lipoproteins is measured.
The reaction is ended by addition of Streptavidin-SPA®beads (Amersham) and the transferred radioactivity is determined directly in the liquid scintillation counter.
The test mixture is carried out as described under "CETP test". For the testing of the serum, only 10 μl of CETP are replaced by 10 μl of the corresponding serum samples. As controls, corresponding incubations with sera of untreated animals are used.
The activity transferred in the control mixtures with control sera is rated as 100% transfer. The substance concentration at which this transfer is reduced to a half is indicated as the ED50 value.

Turning to `OCC1Cc2nc(C3CCCC3)c(C(F)c3ccc(C(F)(F)F)cc3)c(-c3ccc(F)cc3)c2C(O)C1` (single isomer, unassigned) [Example 211], the “% HDL rise” value in test [1] is given as “+7.54%”.
Turning to `OC1CC2(CC2)Cc2nc(C3CCCC3)c(C(F)c3ccc(C(F)(F)F)cc3)c(-c3ccc(F)cc3)c21` (single isomer, unassigned) [Example 319], in test [2], it took 50 nM to reach half-maximal inhibition (IC50).
Turning to `OC1CC2(CCC2)Cc2nc(C3CCCC3)c(C(F)c3ccc(C(F)(F)F)cc3)c(-c3ccc(F)cc3)c21` (stereo not drawn) [Example 329], in test [2], the IC50 (in general, the concentration that gives 50% inhibition) was 1.5 nM.
As for `CC1(C)Cc2nc(C3CCCC3)c(C(F)c3ccc(C(F)(F)F)cc3)c(-c3ccc(F)cc3)c2C(O)C1` (single isomer, unassigned) [Example 91], in test [1], the “% HDL rise” value is on record as “+12.58%”.
`CC(C)c1nc2c(c(-c3ccc(F)cc3)c1C(F)c1ccc(C(F)(F)F)cc1)C(O)CC1(CC1)C2` (single isomer, unassigned) [Example 313]: 0.2 nM corresponded to half-maximal inhibition in test [2] (IC50).
In the case of `CC1Cc2nc(C3CCCC3)c(C(F)c3ccc(C(F)(F)F)cc3F)c(-c3ccc(F)cc3)c2C(O)C1` (single isomer, unassigned) [Example 181], in test [3], the % Inhibition – broadly, the drop in the measured response relative to a control, in per cent – at 30 mg/kg is given as 46.4% and the “ED50 values for ex vivo activity” value is on record as greater than 30 mg/kg.
On to `CC1(C)Cc2nc(C3CCCC3)c(C(F)c3ccc(Cl)c(C(F)(F)F)c3)c(-c3ccc(F)cc3)c2C(O)C1` (single isomer, unassigned) [Example 170], for which, in test [3], the “% Inhibition at 30 mg/kg” value turned out to be 60.1% and the “ED50 values for ex vivo activity” value is reported as less than 30 mg/kg.
For `CC1Cc2nc(C(C)C)c(C(F)c3ccc(C(F)(F)F)cc3)c(-c3ccc(F)cc3)c2C(O)C1` (stereo not drawn) [Example 115], in test [3], the “% Inhibition at 30 mg/kg” value came out at 61.9% and the “ED50 values for ex vivo activity” value is less than 30 mg/kg.
As to `CC1Cc2nc(C(C)C)c(C(F)c3ccc(C(F)(F)F)cc3)c(-c3ccc(F)cc3)c2C(O)C1` (stereo not drawn) [Example 117], in test [3], the “% Inhibition at 30 mg/kg” value was 86.0% and the “ED50 values for ex vivo activity” value is less than 30 mg/kg.
In turn, `OC1CC2(CCCC2)Cc2nc(C3CCCC3)c(C(F)c3ccc(C(F)(F)F)cc3)c(-c3ccc(F)cc3)c21` (single isomer, unassigned) [Example 300] came in with a 50% inhibitory concentration (IC50) in test [2] of 0.2 nM.
Take `CC(C)c1nc2c(c(-c3ccc(F)cc3)c1C(F)c1ccc(C(F)(F)F)cc1)C(O)CC(C)(C)C2` (single isomer, unassigned) [Example 90]: half-maximal inhibition in test [2] (IC50) was put at 60 nM.
For `CC(C)c1nc2c(c(-c3ccc(F)cc3)c1C(F)c1ccc(C(F)(F)F)cc1)C(O)CC1(CCCC1)C2` (single isomer, unassigned) [Example 291], in test [2], the IC50 came out at 30 nM.
For `CC(C)c1nc2c(c(-c3ccc(F)cc3)c1C(F)c1ccc(C(F)(F)F)cc1)C(O)CC1CC21` (single isomer, unassigned) [Example 237], half-maximal inhibition in test [2] (IC50) was put at 800 nM. In addition, the “% HDL rise” value in test [1] is given as “+21.03%”.
Turning to `OC1CC(C2CC2)Cc2nc(C3CCCC3)c(C(F)c3ccc(C(F)(F)F)cc3)c(-c3ccc(F)cc3)c21` (stereo not drawn) [Example 209], in test [1], the “% HDL rise” value was “+25.94%”.
In test [2], `CC1(C)Cc2nc(C3CCCC3)c(C(N=[N+]=[N-])c3ccc(C(F)(F)F)cc3)c(-c3ccc(F)cc3)c2C(O)C1` (stereo not drawn) [Example 195] gave an IC50 of 750 nM.
For `CC1(C)Cc2nc(C3CCCC3)c(C(F)c3ccc4ccccc4c3)c(-c3ccc(F)cc3)c2C(O)C1` (single isomer, unassigned) [Example 184], in test [3], the “% Inhibition at 30 mg/kg” value worked out at 53.5% and the “ED50 values for ex vivo activity” value is less than 30 mg/kg.
`CC1(C)Cc2nc(C3CCCC3)c(C(F)c3ccc4c(c3)OC(F)(F)O4)c(-c3ccc(F)cc3)c2C(O)C1` (single isomer, unassigned) [Example 244] showed an IC50 in test [2] of 60 nM.
Take `CC(C)c1nc2c(c(-c3ccc(F)cc3)c1C(F)c1ccc(C(F)(F)F)cc1)C(O)CC1(CC1)C2` (single isomer, unassigned) [Example 312]: in test [2], the IC50 was 60 nM.
